From BindingDB's records for patent US10155727 (Janssen Pharmaceuticals, 2018)

Target: Glutamate receptor ionotropic, NMDA 2B (Rattus norvegicus, UniProt P35439+Q00960)
Test: Inhibition of Specific Binding to the Rat NR1/NR2B Receptor
Procedure: After thawing on the day of the assay, a 5 ml membrane aliquot was centrifuged at 48000 g for 30 min at 4° C. The pellet was resuspended in 5 ml of 5 mM Tris/1 mM EDTA buffer, pH 7.4, homogenized for 30 sec at 20000 rpm with an Ultraturrax and centrifuged at 48000 g for 30 min at 4° C. This was repeated twice. […] Nonspecific binding was estimated in the presence of […]. The samples were incubated for 60 min. at 4° C.The incubation was terminated by filtration of the membrane preparations using Filtermat B (Pharmacia, Uppsala Sweden) and a Micro Cell Harvester (Skatron, Lier, Norway). The Filtermat B had been presoaked with 1% polyethylene imine and carefully washed with 50 mM Tris/HCl-buffer pH 7.7 after the filtration to separate free and bound radioactivity. […] For pipetting of the incubation mixture the robot Biomek2000 (Fa. Beckman) was used.

Glutamate receptor ionotropic, NMDA 2B, sequence (Q00960 whole entry, one chain of several): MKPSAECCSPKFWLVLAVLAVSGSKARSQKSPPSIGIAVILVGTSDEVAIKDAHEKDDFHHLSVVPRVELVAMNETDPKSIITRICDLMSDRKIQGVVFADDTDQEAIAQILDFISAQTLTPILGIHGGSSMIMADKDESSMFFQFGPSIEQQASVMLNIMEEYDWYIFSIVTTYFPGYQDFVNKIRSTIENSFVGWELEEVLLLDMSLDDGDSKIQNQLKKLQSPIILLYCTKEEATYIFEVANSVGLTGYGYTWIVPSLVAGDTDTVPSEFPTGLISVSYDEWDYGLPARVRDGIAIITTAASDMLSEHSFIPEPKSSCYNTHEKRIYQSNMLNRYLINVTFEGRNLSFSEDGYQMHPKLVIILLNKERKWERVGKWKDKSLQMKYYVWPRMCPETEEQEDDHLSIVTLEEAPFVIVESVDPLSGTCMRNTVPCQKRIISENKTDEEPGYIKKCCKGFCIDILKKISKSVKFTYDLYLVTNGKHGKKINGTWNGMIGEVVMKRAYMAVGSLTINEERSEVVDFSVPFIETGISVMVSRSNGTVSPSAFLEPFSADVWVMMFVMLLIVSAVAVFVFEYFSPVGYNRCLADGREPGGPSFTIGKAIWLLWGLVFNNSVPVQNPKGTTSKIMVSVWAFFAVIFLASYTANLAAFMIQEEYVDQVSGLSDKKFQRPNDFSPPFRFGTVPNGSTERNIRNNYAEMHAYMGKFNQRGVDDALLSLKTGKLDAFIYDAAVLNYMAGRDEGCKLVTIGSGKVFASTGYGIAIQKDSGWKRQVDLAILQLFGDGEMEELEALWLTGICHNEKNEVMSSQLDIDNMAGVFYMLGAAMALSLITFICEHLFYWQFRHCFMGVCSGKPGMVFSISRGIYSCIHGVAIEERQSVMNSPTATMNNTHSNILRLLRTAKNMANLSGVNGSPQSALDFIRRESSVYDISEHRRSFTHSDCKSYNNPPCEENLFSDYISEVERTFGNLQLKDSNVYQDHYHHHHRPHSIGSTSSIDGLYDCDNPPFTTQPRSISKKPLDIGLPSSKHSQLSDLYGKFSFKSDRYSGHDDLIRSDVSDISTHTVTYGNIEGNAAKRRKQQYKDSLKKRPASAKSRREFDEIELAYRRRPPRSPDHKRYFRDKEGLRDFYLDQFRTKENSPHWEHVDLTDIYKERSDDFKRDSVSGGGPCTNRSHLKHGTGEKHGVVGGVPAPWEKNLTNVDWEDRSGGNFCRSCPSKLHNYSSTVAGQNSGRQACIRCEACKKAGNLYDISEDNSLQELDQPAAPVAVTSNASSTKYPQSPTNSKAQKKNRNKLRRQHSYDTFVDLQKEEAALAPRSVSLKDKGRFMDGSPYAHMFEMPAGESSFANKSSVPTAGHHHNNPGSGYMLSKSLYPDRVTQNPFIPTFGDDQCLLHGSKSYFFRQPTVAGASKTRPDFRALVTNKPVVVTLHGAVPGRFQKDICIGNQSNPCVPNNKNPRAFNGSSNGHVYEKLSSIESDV

Compound | IC50 [µM]
Cc1cc(Cn2cc(-c3ccc(C(F)(F)F)cc3)cn2)n(C)n1 [US10155727, Example 51] | 9.21
Cn1ccc(Cn2cc(-c3cccc(C(F)(F)F)c3)cn2)n1 [US10155727, Example 49] | 2.25
